Values joined by “and” are separate entries in the source; they are usually repeats but may differ in a detail not shown here. Identical values can stand only once.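 A five-concentration, 48-hour dose response in 96-well plates underlies each endpoint, interpolated linearly between surrounding concentrations. Here, GI50 denotes the concentration required for 50% inhibition of growth. TGI: concentration producing complete growth inhibition.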
Legend:
Assay in all cases: NCI tumour cell line growth inhibition, 48 h
SNB-78 CNS = tested on: SNB-78 CNS
DLD-1 colon = tested on: DLD-1 colon
LXFL 529 NSCLC = tested on: LXFL 529 NSCLC
M19-MEL melanoma = tested on: M19-MEL melanoma
KM20L2 colon = tested on: KM20L2 colon
DMS 114 small cell lung = tested on: DMS 114 small cell lung
P388/ADR leukemia = tested on: P388/ADR leukemia
SN12K1 renal = tested on: SN12K1 renal
P388 leukemia = tested on: P388 leukemia
XF 498 CNS = tested on: XF 498 CNS
HOP-18 NSCLC = tested on: HOP-18 NSCLC
RXF-631 renal = tested on: RXF-631 renal

| Structure (SMILES) | TGI (SNB-78 CNS) | TGI (DLD-1 colon) | TGI (LXFL 529 NSCLC) | TGI (M19-MEL melanoma) | TGI (KM20L2 colon) | TGI (DMS 114 small cell lung) | TGI (P388/ADR leukemia) | TGI (SN12K1 renal) | TGI (P388 leukemia) | TGI (XF 498 CNS) | TGI (HOP-18 NSCLC) | GI50 (SNB-78 CNS) | GI50 (DLD-1 colon) | GI50 (LXFL 529 NSCLC) | GI50 (M19-MEL melanoma) | GI50 (KM20L2 colon) | GI50 (RXF-631 renal) | TGI (RXF-631 renal) | GI50 (HOP-18 NSCLC) | GI50 (DMS 114 small cell lung) |
| --- | --- | --- | --- | --- | --- | --- | --- | --- | --- | --- | --- | --- | --- | --- | --- | --- | --- | --- | --- | --- |
| COc1c(O)c(C=O)c2c(O)c(-c3c(C)cc4c(C(C)C)c(OC)c(O)c(C=O)c4c3O)c(C)cc2c1C(C)C | 52.3 µM | 15.8 µM | 12 µM | 12.4 µM | 19.9 µM | 6.93 µM |  |  |  |  |  |  |  |  |  |  |  |  |  |  |
| CC(=O)Oc1cc2c(cc1OC(C)=O)OCC(c1ccc(C)cc1)C2 (configuration not stated) | 55.5 µM | 45.9 µM |  | 23.5 µM | 60.5 µM | 18.7 µM | 11.4 µM | 34 µM | 20.8 µM | 32.2 µM | 62.1 µM |  |  |  |  |  |  |  |  |  |
| C/C=C/c1cc(=O)c([C@@H]2OC(=O)c3cc(OC)cc(OC)c32)co1 |  |  | 91.6 µM | > 100 µM | > 100 µM | 56.6 µM |  |  |  |  |  |  |  |  |  |  |  |  |  |  |
| CN(C)C(=O)OC1C(=O)N(C)c2ccc(Cl)cc2C2(c3ccccc3)N1C2(Cl)Cl (configuration not stated) |  | > 100 µM | > 100 µM | > 100 µM | > 100 µM |  |  |  |  |  |  |  |  |  |  |  |  |  |  |  |
| [Cl][Sn]([c]1ccccc1)([c]1ccccc1)[c]1ccccc1 | 0.439 µM and 0.0851 µM | 0.14 µM and 0.0282 µM | 0.131 µM and 0.0798 µM | 0.0969 µM and 0.043 µM | 0.11 µM and 0.0454 µM | 0.062 µM and 0.102 µM |  |  |  |  | 0.113 µM | 0.0847 µM and 0.0219 µM | 0.0378 µM and < 0.01 µM | 0.0353 µM and 0.0227 µM | 0.0306 µM and 0.0181 µM | 0.034 µM and 0.0186 µM | 0.0472 µM | 0.149 µM | 0.0293 µM | 0.0237 µM and 0.0186 µM |
| COc1cc2ccc(=O)oc2cc1O | > 625 µM | 552 µM |  | 328 µM | 614 µM | 335 µM | 103 µM | 236 µM | 233 µM | 337 µM | 521 µM |  |  |  |  |  |  |  |  |  |
| NC(=O)c1cccc([N+](=O)[O-])c1 | > 100 µM | > 100 µM | > 100 µM | > 100 µM | > 100 µM | > 100 µM |  |  |  | > 100 µM |  |  |  |  |  |  |  |  |  |  |
